Measured values published in US20170303557A1, “PURIFICATION OF POLYPHENOLS” (NESTEC S.A., priority 2014, published 2017).

Assay: Model study: degradation of 5-CQA and formation of its ethylester in 75% ethanolic solution (LC/MS-DAD)
Type: physicochemical
Settings: 75% ethanol
Procedure: During the experiment 5-CQA was stored in the presence of ethanol (75% ethanolic solution) by varying the following parameters pH, temperature and time.
The process was conducted under the following conditions using 5-CQA esterification as the model.
For each trial 10 mg of 5-CQA were dissolved in 40 mL of a 75% ethanolic solution. • pH studies: The pH was adjusted to pH 1, pH 2.7 and pH 4 with hydrochloric acid (32%) and to pH 12 by using NaOH solution (4 N) and all samples were kept in a lab oven at a temperature of 80° C. for 2 hours. • Temperature studies: CQA solutions were adjusted to pH 1 with hydrochloric acid (32%) and kept for 2 hours either at room temperature, 50° C. or 80° C. in a lab oven. • Time studies: 5-CQA solutions were adjusted to pH 1 and kept at room temperature or 50° C. for 1 h, 2 h, 3 h and 36 h (RT only). • System: The analysis was performed on a LC-DAD-MS system using LCQ Deca mass spectrometer (Thermo Finnigan), with a DAD detector (Thermo Finnigan) and a Rheos HPLC system (Thermo Finnigan). • Sample Preparation: For each parameter an aliquot of the solution was diluted 1:10 and directly used for LC/MS-DAD analysis. • HPLC Method: The separation was performed at ambient temperature on a Zorbax Eclipse C18 column, 5 μm, 150*3 mm (Agilent). A binary gradient of A/B (A: 0.1% formic acid, B: methanol) was applied. • MS parameters: The Mass spectrometer used is the LCQ-Deca operated in FullScan and data dependant MS/MS mode (m/z 100-1000) for compound identification.

With `O=C(/C=C/c1ccc(O)c(O)c1)O[C@@H]1C[C@@](O)(C(=O)O)C[C@@H](O)[C@@H]1O` [5-CQA, 5-caffeoyl quinic acid] as the compound, how does the “ester detectable as compared to the native 5-CQA” value (pH 1, 50° C., 2 h) read?
Its value is “Up to 40%”.

What about the ester formed (pH 1, 50° C., period corresponding to desorption duration of up-scaled protocol (within first 3 h)) of the same compound?
The ester formed was 30%.

What about the “ester as compared to 5-CQA” value (pH 1, 80° C., 2 h) of the same compound?
The value was “same amounts of the ester as compared to 5-CQA”.

What about the “transformation of 5-CQA into its ethylester” value (pH 1, 80° C., 2 h) of the same compound?
Its value is “rapid transformation of 5-CQA into its ester”.

And the “5-CQA transformed into its ethylester” value (pH 1, RT, 2 h)?
Its value is “only a small amount”.

What about the ester formed (pH 1, room temperature, 3 h) of the same compound?
Its ester formed is 3%.

And the ester formed (pH 1, room temperature, 36 h)?
Its ester formed is 14%.

And the 5-CQA esterification (pH 2.7, 80° C., 2 h)?
Its 5-CQA esterification is “significantly reduced”.

And the “degradation of 5-CQA” value (pH 4, 80° C., 2 h)?
Its value is “almost not degraded”.

And the “degradation of 5-CQA” value (pH 12, 80° C., 2 h)?
The value was “hydrolysis of 5-CQA yielding caffeic and quinic acid”.
